The target of assay [1] is T1, transfected human CB1 and CB2 receptors: CB2-Receptor (Homo sapiens, UniProt P34972).
T1 construct: purchased Receptor Biology; Inc
Description: In-vitro determination of affinity to CB2 receptor (radioligand [^3H]-CP55940). The assay is classed as binding. The method, then: (§1) Brockie et al., "Agonist-inverse agonist characterization at CB1 and CB2 cannabinoid receptors of L-759633, L759656 and AM630", British Journal of Pharmacology, 126, 665-672, (1999), whereby the transfected human CB1 and CB2 receptors of Receptor Biology. Inc. are used. The radioligand used for both receptors is [^3H]-CP55940.
(§2) The affinity of the inventive substituted pyrazoline compounds to CB1/CB2 receptors was determined as described above.

Assay [2] has as its system Male NMRI mice. The assay is described as follows: Mouse tetrad model, antagonistic effect against Win 55212-2. The assay is classed as in vivo. Conditions: 5 mg/kg i.v. prior to Win 55212-2 in a dose of 1,25mg/kg i.v. An excerpt: (§3) Substances with affinity for cannabinoid receptors are known to produce a wide range of pharmacological effects. It is also known that intravenous administration of a substance with affinity for cannabinoid receptors in mice produces analgesia , hypothermia, sedation and catalepsy. Individually, none of these effects can be considered as proof that a tested substance has affinity for cannabinoid-receptors, since all of these effects are common for various classes of centrally active aaents. However, substances, which show all of these effects, i.e. substances that are active in this so-called tetrad model are considered to have affinity for the cannabinoid receptors. It has further been shown that cannabinoid receptor antagonists are higly effective in blocking the effects of a cannabinoid agonist in the mouse tetrad model.
(§4) The tetrad model is described, for example, in the publication of A. C. Howlett et al, International Union of Pharmacology XXVII. Classification of Cannabinoid Receptors, Pharmacol Rev 54, 161-202 , 2002 and David R. Compton et al., "In-vivo Characterization of a Specific Cannabinoid Receptor Antagonist (SR141716A) :Inhibition of Tetrahydrocannbinol- induced Responses and Apparent Agonist Activity", J. Pharmacol. Exp. Ther. 277 , 2, 586-594, 1996. The corresponding parts of the description are hereby incorporated by reference. […]
(§5) Before testing in the behavioral procedures given below, mice are acclimatized to the experimental setting. Pre-Treatment control values are determined for analgesia hot plate latency (in seconds), rectal temperature, sedation and catalepsy.
In order to determine the antagonistic activity the identical procedure is used as for the determination of the agonistic effects, but with the difference that the substance to be evaluated for its antagonistic activity is injectected 5 minutes before the intravenous injection of 1.25 mg/kg Win-55,212 a known cannabinoid-receptor agonist.
(§6) The hot plate analgesia is determined according to the method described in Woolfe D. et al. "The evaluation of analgesic action of pethidine hydrochloride (Demerol)", J. Pharmacol. Exp. Ther. 80, 300-307,1944.
(§7) The mice are placed on a hot plate (Harvard Analgesimeter) at 55 ± 0.5 °C until they show a painful sensation by licking their paws or jumping and the time for these sensations to occur is recorded. This reading is considered the basal value (B). […]
(§8) Fifteen minuts after the administration of the substance to be tested, the mice are again placed on the hot plate and the afore described procedure is repeated. This period is called the post-treatment reading (PT).
(§9) The degree of analgesia is calculated from the formula: %MPEof Analgesia = (PT−B)/(PC−B) × 100 [formula] […]

For assay [3], the target named is T2, transfected human CB1 and CB2 receptors: CB1-Receptor (Homo sapiens, UniProt P21554).
T2 construct: purchased Receptor Biology; Inc
T2 sequence (P21554 whole entry): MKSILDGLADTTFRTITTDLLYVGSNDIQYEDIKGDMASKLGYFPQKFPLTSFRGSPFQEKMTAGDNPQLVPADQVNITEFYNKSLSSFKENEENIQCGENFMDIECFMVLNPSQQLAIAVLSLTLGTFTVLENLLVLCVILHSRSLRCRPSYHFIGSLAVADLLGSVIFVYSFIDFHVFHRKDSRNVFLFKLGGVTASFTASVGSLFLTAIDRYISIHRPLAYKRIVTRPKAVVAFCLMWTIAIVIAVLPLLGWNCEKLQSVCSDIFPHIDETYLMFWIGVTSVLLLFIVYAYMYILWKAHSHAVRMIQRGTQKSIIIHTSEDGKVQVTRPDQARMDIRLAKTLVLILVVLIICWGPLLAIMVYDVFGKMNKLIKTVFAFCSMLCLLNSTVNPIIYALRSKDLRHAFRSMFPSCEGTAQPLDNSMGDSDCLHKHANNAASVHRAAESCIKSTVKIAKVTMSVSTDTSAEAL
Description: In-vitro determination of affinity to CB1 receptor (radioligand [^3H]-CP55940). Format: binding. The method, then:
as §1, §2

In assay [4] the test system is Male NMRI mice. The assay is described as follows: Mouse tetrad model, agonistic effect. Format: in vivo. The following applies: 5 mg/kg i.v.
Description: as §3, §4, §5
In order to determine the agonistic activty of the substance to be tested, the mice are injected intravenously with the substance to be tested or the vehicle alone. 15 minutes after injection, latency in hot plate analgesia is measured. Rectal temperature, sedation and catalepsy are measured 20 minutes after injection.
as §6, §7, §8, §9

T1 sequence (P34972 whole entry): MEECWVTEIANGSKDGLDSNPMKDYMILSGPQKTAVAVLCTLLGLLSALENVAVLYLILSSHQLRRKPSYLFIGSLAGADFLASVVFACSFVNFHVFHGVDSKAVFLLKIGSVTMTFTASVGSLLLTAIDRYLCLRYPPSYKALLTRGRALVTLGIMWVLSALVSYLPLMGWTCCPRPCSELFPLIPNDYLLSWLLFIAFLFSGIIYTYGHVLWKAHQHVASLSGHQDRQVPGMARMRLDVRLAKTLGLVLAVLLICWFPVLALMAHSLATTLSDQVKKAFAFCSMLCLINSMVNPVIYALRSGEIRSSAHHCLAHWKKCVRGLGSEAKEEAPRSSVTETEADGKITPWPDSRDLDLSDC

For the compound `O=C(NN1CCCCC1)C1=NN(c2ccc(Cl)cc2Cl)C(c2ccc(Cl)cc2)C1` (stereo not shown) [Example 1, N-piperidinyl-5-(4-chlorophenyl)-1-(2,4-dichlorophenyl)-4,5-dihydro-1H-pyrazole-3-carboxamide], the Ki (commonly a measure of affinity in units of concentration, obtained from inhibition or displacement) in assay [1] is above 1 µM. In addition, in the assay on Male NMRI mice [2], the “Antagonistic Effect A: Hot-Plate test” value was determined as 74, the “Antagonistic Effect B: Hypothermia” value is 100, the “Antagonistic Effect C: Catalepsy” value is given as 100 and the “Antagonistic Effect D: Sedation” value came out at 100. In addition, the “Ki” value in assay [3] was below 0.025 µM. In addition, the “Agonistic effect A: Hot-Plate test” value with Male NMRI mice [4] (15 minutes after injection) is 0. For the same compound, in the assay with Male NMRI mice [4] (20 minutes after injection), the “Agonistic effect B: Hypothermia” value was 0, the “Agonistic effect C: Catalepsy” value was found to be 0 and the “Agonistic effect D: Sedation” value is recorded as 0.
